Measured values: US5171662A, “Method of detecting HIV protease activity” (priority 1991, dated 1992)
Non-standard residues stand in square brackets, D forms with d. Residues, ends and D or L forms follow the SMILES beside them. No end group written: not given here. *: point of attachment. Sta = CC(C)C[C@H](N)[C@@H](O)CC(=O)O; Isovaleryl = CC(C)CC(=O)*

Key:
HIV protease [1] = settings: cited from earlier work
[2] = system: synthetic protease (99-residue peptide with the sequence proposed for the HIV protease); settings: cited from earlier work
HIV protease [3] = settings: cited from earlier work; remark: listed apart in the source
HIV protease [4] = target: HIV protease (HIV-1 M:B_HXB2R, UniProt P04585); assay: Cleavage of tetradecapeptide substrate by HIV protease, Ang I determined by RIA; assay type: biochemical
Source text: The tetradecapeptide (TDP) substrate, Asp-Arg-Val-Tyr-Ile-His-Pro-Phe-His-Leu-Leu-Val-Tyr-Ser, was obtained from Peninsula Laboratories, Inc., Belmont, Calif. The Ang I RIA kit was purchased from Baxter Health Care Corporation, Cambridge, Mass. Recombinant HIV-1 protease was purified and refolded from E. coli as published previously (Tomasselli, A. G. et. al. (1990) Biochemistry 29, 264-269). The TDP substrate has an HIV protease cleavage site which when cut at the Leu-Leu bond produces authentic Ang I. The Ang I RIA kit detected the Angiotesin I if produced.
The various steps of the in vitro assay to screen a compound were performed as follows. The series of assays are done for each compound, each assay using a different concentration of compound. The various reagents were added to the system in the order which they are listed.
1. 52 μl assay buffer (0.1M Sodium Acetate, 10% glycerol, 3 mM EDTA, 5% ethylene glycol, 1 mg/ml BSA, pH 5.5)
2. 15 μl HIV-1 protease (final Concentration in assay 0.75 μg/ml). For inhibition studies, 12 μl of inhibitor solution was added prior to adding the enzyme.
3. 135 μl of 2.8 uM substrate (final concentration about 1.9 μM)
4. […]
5. […] Following an overnight equilibration at room temperature, the tubes are drained and the amount of radioactivity (^125 I-labeled Ang I) remaining on the tube is determined in a gamma counter. […]

| Compound | inhibition of autoprocessing which liberates the protease from the precursor (HIV protease [1]) | inhibition of proteolytic action of the synthetic protease [2] | inhibition of cleavage of gag precursor polyproteins by HIV protease (HIV protease [3]) | cleavage of substrate by HIV protease (HIV protease [4]) |
| --- | --- | --- | --- | --- |
| CC(C)CC(=O)N[C@H](C(=O)N[C@H](C(=O)N[C@@H](CC(C)C)[C@@H](O)CC(=O)N[C@@H](C)C(=O)N[C@@H](CC(C)C)[C@@H](O)CC(=O)O)C(C)C)C(C)C [pepstatin A] (Isovaleryl-VV[Sta]A[Sta]-OH) | can be inhibited | can be inhibited by pepstatin | can be inhibited by pepstatin A | – |
| DRVYIHPFHLLVYS [TDP] | – | – | – | HIV protease cleaves the Ang I substrate |
